Experimental data taken from article PMC4466525, “Design, Synthesis and Structure-Activity Relationship Studies of Novel Survivin Inhibitors with Potent Anti-Proliferative Properties” (PLoS ONE, 2015).

Columns and labels:
PC-3 = assay: Cell viability (MTS) anti-proliferative assay, PC-3; type: cell-based; conditions: PC-3 human prostate cancer, 48 h treatment, n = 4, read-out: IC50 values ± SEM, PC-3
Experimental: (§1) The anti-proliferative effect of UC-112 and its analogs were tested in human melanoma (A375, M14 and M14/LCC6MDR1) and human prostate cancer (PC-3) cell lines. All the cell lines were purchased from ATCC (American Type Culture Collection, Manassas, VA). The cancer cells were cultured using the supplemented cell culture medium as described before at 37°C in a humidified atmosphere containing 5% CO2. 5000 cells in logarithm growing phase were seeded overnight into each well of a 96-well plate. Then the cells were continuously incubated with sequential diluted compound solution (10 nM to 100 μM, 100 μl per well) in cell culture medium.

M14 = assay: Cell viability (MTS) anti-proliferative assay, M14; type: cell-based; conditions: M14 human melanoma, 48 h treatment, n = 4, read-out: IC50 values ± SEM, M14
Experimental: as §1

M14/LCC6MDR1 = assay: Cell viability (MTS) anti-proliferative assay, multidrug-resistant M14/LCC6MDR1; type: cell-based, human
Experimental: as §1

A375 = assay: Cell viability (MTS) anti-proliferative assay, A375; type: cell-based; conditions: A-375, A375 human melanoma, 48 h treatment, n = 4, read-out: IC50 values ± SEM, A375
Experimental: as §1

survivin [1] = biological target: T1, survivin (Homo sapiens, UniProt O15392); assay: Western blotting of survivin level, PC-3 cells; type: cell-based; conditions: gradient increasing dose, 24 h
T1 construct: endogenous in cells; host or cells: A375 cells
T1 sequence (O15392 whole entry): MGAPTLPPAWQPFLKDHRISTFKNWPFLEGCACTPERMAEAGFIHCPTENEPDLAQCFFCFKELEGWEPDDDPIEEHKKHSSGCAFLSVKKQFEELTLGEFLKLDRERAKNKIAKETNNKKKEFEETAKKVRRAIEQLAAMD

[2] = system: other IAPs (XIAP, cIAP1, cIAP2, livin); assay: Western blotting of other IAP levels; type: cell-based, human; conditions: 24 h, A375 and PC-3 cells
Experimental: (§2) Lysates of A375 cells treated by the compound solution for 24 h were used to determine the change of IAP protein levels through western blotting. Primary rabbit antibodies against survivin, XIAP, cIAP1, cIAP2, livin and GAPDH were purchased from Cell Signaling Technology, Inc. (Danvers, MA) and used according to manufacture instructions as reported previously. Protein lane intensities were quantified by ImageJ software (US National Institutes of Health, Bethesda, MD).

survivin [3] = biological target: T1, survivin; assay: Western blotting of survivin level, A375 cells; type: cell-based
Experimental: as §2

Structure (SMILES): CCc1ccc(COCc2cc(CN3CCCC3)c(O)c3ncccc23)cc1 [4f, 5-(((4-ethylbenzyl)oxy)methyl)-7-(pyrrolidin-1-ylmethyl)quinolin-8-ol]
- IC50 (PC-3): 900 ± 100 nM
- IC50 (M14): 900 ± 100 nM
- IC50 (M14/LCC6MDR1; Homo sapiens, 48 h, multidrug-resistant M14/LCC6MDR1 melanoma, 48 h treatment, MTS, n = 4, read-out: IC50 values ± SEM, M14/LCC6MDR1): 2700 ± 1000 nM
- Resistance Index (M14/LCC6MDR1; IC50 on M14/LCC6MDR1 divided by IC50 on parental M14): 3.0
- IC50 (A375): 900 ± 100 nM
- Effect on survivin level, PC-3 (survivin [1]): dose-dependently suppressed survivin level
- Effect on levels of other IAPs [2]: minimally affected
- IC50 values for survivin inhibition (survivin [3]; estimated from western blotting, A375 and PC-3 cells): low nanomolar range
- Effect on survivin level, A375 (survivin [3]; gradient increasing dose, 24 h, A375 cells): dose-dependently suppressed survivin level
